PubChem BioAssay (NCI)
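Grown in 96-well plates, cells were treated for 48 hours with each compound at five concentrations. Insufficient inhibition: endpoint recorded as highest concentration tested. GI50 is the concentration that inhibits growth by half. TGI denotes the concentration required for complete inhibition of growth.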

Columns and labels:
Assay in all cases: NCI tumour cell line growth inhibition, 48 h
[1] = system: HOP-92 NSCLC
[2] = system: SK-MEL-5 melanoma
[3] = system: MOLT-4 leukemia
[4] = system: UACC-257 melanoma
[5] = system: HT29 colon
[6] = system: U251 CNS
[7] = system: BT-549 breast
[8] = system: DU-145 prostate
[9] = system: NCI/ADR-RES ovarian
[10] = system: RXF 393 renal
[11] = system: SN12C renal
[12] = system: SR leukemia
[13] = system: NCI-H460 lung
[14] = system: IGROV1 ovarian
[15] = system: NCI-H226 lung
[16] = system: UO-31 renal
[17] = system: MDA-MB-231 breast
[18] = system: RPMI-8226 leukemia
[19] = system: PC-3 prostate
[20] = system: A498 renal
[21] = system: OVCAR-3 ovarian
[22] = system: HCC-2998 colon
[23] = system: MDA-MB-435
[24] = system: NCI-H522 lung
[25] = system: SK-MEL-2 melanoma
[26] = system: UACC-62 melanoma
[27] = system: HS 578T breast
[28] = system: SF-268 CNS
[29] = system: COLO 205 colon
[30] = system: 786-0 renal
[31] = system: OVCAR-4 ovarian
[32] = system: HCT-116 colon
[33] = system: SF-539 CNS
[34] = system: NCI-H23 lung
[35] = system: SW-620 colon
[36] = system: K-562 leukemia
[37] = system: CCRF-CEM leukemia
[38] = system: MALME-3M melanoma
[39] = system: T-47D breast
[40] = system: HCT-15 colon
[41] = system: M14 melanoma
[42] = system: KM12 colon
[43] = system: SK-MEL-28 melanoma
[44] = system: HL-60(TB) leukemia
[45] = system: MCF7 breast
[46] = system: OVCAR-8 ovarian
[47] = system: SNB-19 CNS
[48] = system: OVCAR-5 ovarian
[49] = system: HOP-62 NSCLC
[50] = system: SK-OV-3 ovarian
[51] = system: A549 NSCLC
[52] = system: LOX IMVI melanoma
[53] = system: ACHN renal
[54] = system: TK-10 renal
[55] = system: CAKI-1 renal
[56] = system: EKVX NSCLC
[57] = system: SNB-75 CNS
[58] = system: SF-295 CNS

SMILES: CC(CN1CCN(CCOCCO)CC1)CN1c2ccccc2Sc2ccc(Cl)cc21 (centres undefined)
- GI50 [1]: 1.01 µM
- TGI [1]: 4.63 µM
- GI50 [2]: 1.69 µM
- TGI [2]: 3.07 µM
- GI50 [3]: 2.49 µM
- TGI [3]: 6.54 µM
- GI50 [4]: 1.49 µM
- TGI [4]: 3.11 µM
- GI50 [5]: 1.79 µM
- TGI [5]: 3.36 µM
- GI50 [6]: 2.19 µM
- TGI [6]: 6.04 µM
- GI50 [7]: 2.45 µM
- TGI [7]: 6.67 µM
- GI50 [8]: 5.05 µM
- TGI [8]: 17 µM
- GI50 [9]: 4.39 µM
- TGI [9]: 18.1 µM
- GI50 [10]: 1.58 µM
- TGI [10]: 4.85 µM
- GI50 [11]: 3.86 µM
- TGI [11]: 17.1 µM
- GI50 [12]: 3.58 µM
- TGI [12]: 16.5 µM
- GI50 [13]: 2.36 µM
- TGI [13]: 5.35 µM
- GI50 [14]: 3.36 µM
- TGI [14]: 13.3 µM
- GI50 [15]: 11.5 µM
- TGI [15]: 36.8 µM
- GI50 [16]: 3.3 µM
- TGI [16]: 16.4 µM
- GI50 [17]: 1.86 µM
- TGI [17]: 4.79 µM
- GI50 [18]: 2.19 µM
- TGI [18]: 5.54 µM
- GI50 [19]: 2.6 µM
- TGI [19]: 10.6 µM
- GI50 [20]: 1.78 µM
- TGI [20]: 5.08 µM
- GI50 [21]: 3.62 µM
- TGI [21]: 12.7 µM
- GI50 [22]: 1.91 µM
- TGI [22]: 3.51 µM
- GI50 [23]: 2.06 µM
- TGI [23]: 4.96 µM
- GI50 [24]: 1.71 µM
- TGI [24]: 3.36 µM
- GI50 [25]: 1.87 µM
- TGI [25]: 3.63 µM
- GI50 [26]: 1.75 µM
- TGI [26]: 3.44 µM
- GI50 [27]: 3.44 µM
- TGI [27]: 20.1 µM
- GI50 [28]: 4.87 µM
- TGI [28]: 18.4 µM
- GI50 [29]: 1.69 µM
- TGI [29]: 3.18 µM
- GI50 [30]: 4.79 µM
- TGI [30]: 18 µM
- GI50 [31]: 4.22 µM
- TGI [31]: 16 µM
- GI50 [32]: 2.03 µM
- TGI [32]: 4.35 µM
- GI50 [33]: 2.52 µM
- TGI [33]: 6.94 µM
- GI50 [34]: 10.8 µM
- TGI [34]: 24.2 µM
- GI50 [35]: 1.84 µM
- TGI [35]: 3.58 µM
- GI50 [36]: 1.96 µM
- TGI [36]: 4.18 µM
- GI50 [37]: 2.68 µM
- TGI [37]: 8.74 µM
- GI50 [38]: 1.75 µM
- TGI [38]: 3.45 µM
- GI50 [39]: 6.22 µM
- TGI [39]: 22.6 µM
- GI50 [40]: 1.85 µM
- TGI [40]: 3.76 µM
- GI50 [41]: 1.85 µM
- TGI [41]: 3.46 µM
- GI50 [42]: 2.78 µM
- TGI [42]: 8.21 µM
- GI50 [43]: 1.75 µM
- TGI [43]: 3.22 µM
- GI50 [44]: 1.76 µM
- TGI [44]: 4.01 µM
- GI50 [45]: 2.64 µM
- TGI [45]: 6.61 µM
- GI50 [46]: 4.99 µM
- TGI [46]: 18.9 µM
- GI50 [47]: 8.14 µM
- TGI [47]: 21.8 µM
- GI50 [48]: 2.6 µM
- TGI [48]: 7.27 µM
- GI50 [49]: 3.52 µM
- TGI [49]: 13.4 µM
- GI50 [50]: 8.87 µM
- TGI [50]: 21.8 µM
- GI50 [51]: 3.05 µM
- TGI [51]: 12.4 µM
- GI50 [52]: 1.74 µM
- TGI [52]: 3.27 µM
- GI50 [53]: 3.46 µM
- TGI [53]: 12.6 µM
- GI50 [54]: 2.31 µM
- TGI [54]: 6.45 µM
- GI50 [55]: 4.37 µM
- TGI [55]: 17.1 µM

SMILES: Cc1cc2c3ccc(C)[n+](C)c3ccc2n1C
- GI50 [1]: 1.97 µM
- TGI [1]: 19.6 µM
- GI50 [2]: 3.65 µM
- TGI [2]: 14.8 µM
- GI50 [3]: 3.12 µM
- TGI [3]: 27.4 µM
- GI50 [4]: 3.45 µM
- TGI [4]: 16.1 µM
- GI50 [5]: 3.07 µM
- TGI [5]: 23.8 µM
- GI50 [6]: 1.9 µM
- TGI [6]: 15.1 µM
- GI50 [7]: 2.27 µM
- TGI [7]: 13.1 µM
- GI50 [8]: 5.09 µM
- TGI [8]: 51.5 µM
- GI50 [9]: > 100 µM
- TGI [9]: > 100 µM
- GI50 [10]: 4.01 µM
- TGI [10]: 44.2 µM
- GI50 [11]: 2.69 µM
- TGI [11]: 15.9 µM
- GI50 [12]: 4.24 µM
- TGI [12]: > 100 µM
- GI50 [13]: 3.9 µM
- TGI [13]: 28.8 µM
- GI50 [14]: 3.14 µM
- TGI [14]: 65.3 µM
- GI50 [15]: 12.9 µM
- TGI [15]: 49.8 µM
- GI50 [16]: 3.79 µM
- TGI [16]: > 100 µM
- GI50 [17]: 5.14 µM
- TGI [17]: 55.3 µM
- GI50 [18]: 1.32 µM
- TGI [18]: 23.3 µM
- GI50 [19]: 1.26 µM
- TGI [19]: 9.11 µM
- GI50 [20]: 0.357 µM
- TGI [20]: 3.8 µM
- GI50 [56]: 0.456 µM
- TGI [56]: 13.6 µM
- GI50 [21]: 3.45 µM
- TGI [21]: 23.2 µM
- GI50 [22]: 2.6 µM
- TGI [22]: 19.8 µM
- GI50 [23]: 5.12 µM
- TGI [23]: 21.9 µM
- GI50 [24]: 4.83 µM
- TGI [24]: 29.3 µM
- GI50 [25]: 7.56 µM
- TGI [25]: 25 µM
- GI50 [26]: 8.97 µM
- TGI [26]: 22.6 µM
- GI50 [27]: 3.17 µM
- TGI [27]: 24.3 µM
- GI50 [28]: 2.99 µM
- TGI [28]: 15.9 µM
- GI50 [29]: 1.75 µM
- TGI [29]: 5.52 µM
- GI50 [30]: 5 µM
- TGI [30]: > 100 µM
- GI50 [31]: 4.18 µM
- TGI [31]: 30.1 µM
- GI50 [32]: 2.31 µM
- TGI [32]: 33.1 µM
- GI50 [57]: 3.15 µM
- TGI [57]: 14.7 µM
- GI50 [33]: 3.89 µM
- TGI [33]: 21.3 µM
- GI50 [34]: 2.04 µM
- TGI [34]: 29.2 µM
- GI50 [35]: 2.15 µM
- TGI [35]: > 100 µM
- GI50 [36]: 1.52 µM
- TGI [36]: > 100 µM
- GI50 [38]: 3.6 µM
- TGI [38]: 12.7 µM
- GI50 [39]: 4.76 µM
- TGI [39]: 49 µM
- GI50 [40]: > 100 µM
- TGI [40]: > 100 µM
- GI50 [41]: 17.2 µM
- TGI [41]: > 100 µM
- GI50 [42]: 0.723 µM
- TGI [42]: 3.46 µM
- GI50 [43]: 6.05 µM
- TGI [43]: 19.5 µM
- GI50 [44]: 1.92 µM
- TGI [44]: 18.7 µM
- GI50 [45]: 4.07 µM
- TGI [45]: 90 µM
- GI50 [46]: 1.53 µM
- TGI [46]: 29.8 µM
- GI50 [47]: 2 µM
- TGI [47]: 14 µM
- GI50 [48]: 5.42 µM
- TGI [48]: 44 µM
- GI50 [49]: 2.8 µM
- TGI [49]: 18.8 µM
- GI50 [50]: 2.88 µM
- TGI [50]: 9.41 µM
- GI50 [58]: 2.34 µM
- TGI [58]: 15.6 µM
- GI50 [51]: 0.46 µM
- TGI [51]: 9.3 µM
- GI50 [52]: 5.05 µM
- TGI [52]: 30.2 µM
- GI50 [53]: 21.5 µM
- TGI [53]: > 100 µM
- GI50 [54]: 13 µM
- TGI [54]: > 100 µM
- GI50 [55]: 30.5 µM
- TGI [55]: > 100 µM
